These results are taken from PubChem BioAssay (NCI).

What all share (assay): DTP human tumour cell line panel, 48 h
In assay [1] the test system is SK-MEL-5 melanoma.
Assay [2] concerns SNB-75 CNS.
Assay [3] deals with A549 NSCLC.
In assay [4] the test system is NCI-H460 lung.
The test system of assay [5] is IGROV1 ovarian.
For assay [6], the system named is NCI-H23 lung.
Assay [7] deals with CCRF-CEM leukemia.
In assay [8] the test system is SW-620 colon.
In assay [9] the test system is MALME-3M melanoma.
Assay [10] has as its system HCC-2998 colon.
For assay [11], the system named is HL-60(TB) leukemia.
The test system of assay [12] is SF-268 CNS.
The subject of assay [13] is UACC-257 melanoma.
Assay [14] relates to MDA-MB-231 breast.
In assay [15] the test system is RPMI-8226 leukemia.
Assay [16] has as its system 786-0 renal.
Assay [17] concerns HOP-62 NSCLC.

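Exposure lasted 48 hours, with cells grown in 96-well plates and compounds tested at five concentrations. TGI: concentration producing complete growth inhibition.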

For the molecule `COc1ccccc1CC1(O)OC(=O)c2ccccc21` (stereo unspecified), the concentration for total growth inhibition (TGI) in assay [1], in assay [2], in assay [3], in [4], in [5] and in assay [6] was over 100 µM each time. Besides, the TGI in assay [7], in assay [8], in assay [9], in [10], in [11] and in assay [12] was over 100 µM throughout. The total growth inhibition concentration (TGI) in assay [13], in assay [14], in assay [15], in [16] and in [17] was over 100 µM each time.

As for `Clc1ccc(C2=Cc3nc2c(-c2ccccc2)c2ccc([nH]2)c(-c2ccccc2)c2nc(c(-c4ccccc4)c4ccc([nH]4)c3-c3ccccc3)C=C2)cc1`, the TGI in assay [1], in assay [2], in assay [3], in assay [4], in assay [5] and in assay [6] was over 62.5 µM each time. Further, the TGI in assay [7], in [8], in assay [9], in [10], in assay [11] and in assay [12] was over 62.5 µM each time. Further, the concentration for total growth inhibition (TGI) in assay [13], in assay [14], in assay [15], in assay [16] and in assay [17] was over 62.5 µM each time.

For `Cc1cc(=O)[nH]c(Sc2ccc([N+](=O)[O-])cc2[N+](=O)[O-])n1`, the TGI – broadly, the concentration giving total growth inhibition – in [1] was 31.3 µM; in assay [2], 39.9 µM; in [3], 40.2 µM; in assay [4] it was over 59.5 µM; in assay [5], over 100 µM; in assay [6] it was 41.1 µM. The TGI in assay [7] was 23.1 µM; in assay [8], 18.1 µM; in assay [9], 35.7 µM; in assay [10], 30.6 µM; in assay [11] it was 11.3 µM; in [12], over 54.3 µM. Moreover, the TGI was 44.7 µM in assay [13]; 46.9 µM in assay [14]; 18.7 µM in assay [15]; 32.9 µM in assay [16]; over 58.5 µM in assay [17].

In the case of `CN1CCN(c2ccc3nc(-c4ccc5nc(CCCc6ccc(N(CCCl)CCCl)cc6)[nH]c5c4)[nH]c3c2)CC1`, the concentration for total growth inhibition (TGI) in [1], in assay [2], in assay [3], in [4], in assay [5] and in [6] was over 100 µM each time. Also, the TGI in [7], in [8], in assay [9], in assay [10], in assay [11] and in assay [12] was over 100 µM each time. The concentration for total growth inhibition (TGI) in assay [13], in [14], in assay [15], in assay [16] and in assay [17] was over 100 µM each time.

Take `CCCCCCCCCCCCCCCCCCOC(COP(=O)(O)OCC1OC(n2cc(F)c(=O)[nH]c2=O)CC1O)COP(=O)(O)OCC1OC(n2ccc(N)nc2=O)C(O)C1O` (stereo unspecified): the TGI in [1] was over 100 µM; in assay [2] it was over 100 µM; in assay [3], over 63.6 µM; in assay [4], over 65.3 µM; in assay [5], over 100 µM; in assay [6], over 100 µM. Also, the TGI in assay [7] was over 81.2 µM; in [8], over 100 µM; in assay [9], over 100 µM; in [10], over 70.5 µM; in assay [11] it was over 100 µM; in [12], over 75 µM. The TGI is over 100 µM in assay [13]; over 100 µM in assay [14]; over 100 µM in [15]; 28.1 µM in [16]; over 100 µM in assay [17].

Turning to `Cc1ccc(C2SCc3nc4ccccc4n32)cc1` (stereo unspecified), the concentration for total growth inhibition (TGI) is 5.28 µM in [1]; 0.0817 µM in [2]; over 100 µM in assay [3]; over 100 µM in assay [4]; over 100 µM in assay [5]; 24.3 µM in assay [6]. For the same molecule, the total growth inhibition concentration (TGI) is over 100 µM in assay [7]; over 100 µM in assay [8]; 73.6 µM in [9]; over 100 µM in assay [10]; 5.94 µM in assay [11]; over 100 µM in assay [12]. The TGI in assay [13] is 68.3 µM; in assay [14], over 100 µM; in assay [15], 38.8 µM; in [16], over 100 µM; in assay [17] it was 23.7 µM.

For the molecule `c1cc2nnc1SCCSCCCSCCS2`, the total growth inhibition concentration (TGI) was over 100 µM in assay [1]; 41.2 µM in [2]; over 100 µM in [3]; over 100 µM in assay [4]; over 100 µM in assay [5]; over 100 µM in [6]. For the same molecule, the TGI in assay [7], in assay [8], in assay [9], in assay [10], in [11] and in [12] was over 100 µM throughout. The TGI in assay [13], in assay [14], in [15], in assay [16] and in assay [17] was over 100 µM in each case.

As to `COc1ccc(/C=C2/C(=O)N(/C=C3\C(=O)Oc4ccccc4C3=O)C(=NC(C)=O)N2C)cc1OC`, the TGI in assay [1], in assay [2], in assay [3], in assay [4], in [5] and in [6] was over 100 µM each time. Moreover, the TGI in [7], in [8], in [9], in assay [10], in assay [11] and in [12] was over 100 µM throughout. Also, the TGI in assay [13], in [14], in [15], in assay [16] and in assay [17] was over 100 µM each time.
